Assay results reported in ChEMBL document CHEMBL5247588, “Design and characterization of PROTAC degraders specific to protein N-terminal methyltransferase 1” (Eur J Med Chem, 2022).
Active and inactive are the calls of the source. No cut-off for these calls is given here.

Key:
[1] = target: T1, N-terminal Xaa-Pro-Lys N-methyltransferase 1 (Homo sapiens, UniProt Q9BV86); test: Inhibition of NTMT1 (unknown origin) using SPKRIAKRRS(CONH2) peptide as substrate assessed as SAH production incubated for 10 mins in the presence of SAM by HPLC analysis
T1 sequence (Q9BV86 whole entry): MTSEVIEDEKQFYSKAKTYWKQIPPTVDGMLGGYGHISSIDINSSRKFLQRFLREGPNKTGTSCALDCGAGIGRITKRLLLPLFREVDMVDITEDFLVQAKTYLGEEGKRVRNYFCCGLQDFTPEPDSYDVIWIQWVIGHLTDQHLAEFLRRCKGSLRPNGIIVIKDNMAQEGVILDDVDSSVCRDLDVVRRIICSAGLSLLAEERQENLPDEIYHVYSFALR

[2] = target: T2, N-terminal Xaa-Pro-Lys N-methyltransferase 1 (Homo sapiens) (UniProt Q9BV86); test: Potency index, ratio of DC541 IC50 to test compound IC50 for inhibition of NTMT1 (unknown origin) using SPKRIAKRRS(CONH2) peptide as substrate assessed as SAH production incubated for 10 mins in the presence of SAM by HPLC analysis
T2 sequence (whole entry): T1 sequence (Q9BV86 whole entry)

[3] = target: T3, von Hippel-Lindau disease tumor suppressor/N-terminal Xaa-Pro-Lys N-methyltransferase 1 (Homo sapiens) (UniProt P40337+Q9BV86); test: PROTAC activity at VHL/NTMT1 in human HCT-116 cells assessed as reduction in NTMT1 protein level at 50 uM incubated for 24 hrs by Western blot analysis; format: cell-based
T3 sequence (P40337 whole entry, looked up, one chain of several): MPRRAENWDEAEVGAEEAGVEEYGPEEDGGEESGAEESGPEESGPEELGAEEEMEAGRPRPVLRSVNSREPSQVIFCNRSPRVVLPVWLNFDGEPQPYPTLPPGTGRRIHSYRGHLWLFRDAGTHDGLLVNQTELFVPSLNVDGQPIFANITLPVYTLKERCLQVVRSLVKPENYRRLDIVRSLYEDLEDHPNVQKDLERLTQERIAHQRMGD

[4] = target: T3, von Hippel-Lindau disease tumor suppressor/N-terminal Xaa-Pro-Lys N-methyltransferase 1 (Homo sapiens); test: PROTAC activity at VHL/NTMT1 in human HT-29 cells assessed as reduction in NTMT1 protein level at 50 uM incubated for 24 hrs by Western blot analysis; format: cell-based
HCT-116 [5] = test: Cytotoxicity against human HCT-116 cells assessed as reduction in cell viability at 1 to 64 uM incubated for 24 hrs by WST-8 assay; format: toxicity, cell-based; settings: hct-116, 24 h, dose 1-64 µM
HT-29 = test: Cytotoxicity against human HT-29 cells assessed as reduction in cell viability at 1 to 64 uM measured after 24 hrs by WST-8 assay; format: toxicity, cell-based; settings: ht-29, 24 h, dose 1-64 µM
HCT-116 [6] = test: Antiproliferative activity against human HCT-116 cells assessed as reduction in cell proliferation incubated for 72 hrs by fluorescence based microplate reader analysis; format: functional; settings: dose 1-64 µM
HCT-116 [7] = test: Antiproliferative activity against human HCT-116 cells assessed as inhibition of cell proliferation at 1 to 64 uM incubated for 72 hrs by fluorescence based microplate reader analysis relative to control; format: functional; settings: dose 1-64 µM
HCT-116 [8] = test: Antiproliferative activity against NTMT1 knockout human HCT-116 cells at 1 to 64 uM incubated for 72 hrs by fluorescence based microplate reader analysis; format: functional, cell-based; settings: dose 1-64 µM
HCT-116 [9] = test: Antiproliferative activity against human HCT-116 cells assessed as reduction in tumor spheroid growth at 64 uM measured after 12 days by imaging analysis relative to control; format: functional; set-up: scale not given: the % may be the effect or the level left; settings: time 12 day
HCT-116 [10] = test: Antiproliferative activity against human HCT-116 cells cultured in PG-S assessed as decrease in cell number at 64 uM measured after 3 days by AO/PI staining based cell counter analysis relative to control; format: functional; set-up: scale not given: the % may be the effect or the level left; settings: time 3 day
[11] = Upregulation of CALR in human HCT-116 cells assessed as fold change at 25 uM incubated for 24 hrs by Western blot analysis relative to control; format: functional
[12] = target: T3, von Hippel-Lindau disease tumor suppressor/N-terminal Xaa-Pro-Lys N-methyltransferase 1 (Homo sapiens); test: PROTAC activity at VHL/NTMT1 in human HCT-116 cells assessed as reduction in NTMT1 protein level incubated for 24 hrs by Western blot analysis; format: cell-based
[13] = target: T3, von Hippel-Lindau disease tumor suppressor/N-terminal Xaa-Pro-Lys N-methyltransferase 1 (Homo sapiens); test: PROTAC activity at VHL/NTMT1 in human HT-29 cells assessed as reduction in NTMT1 protein level incubated for 24 hrs by Western blot analysis; format: cell-based
[14] = target: T3, von Hippel-Lindau disease tumor suppressor/N-terminal Xaa-Pro-Lys N-methyltransferase 1 (Homo sapiens); test: PROTAC activity at VHL/NTMT1 in human HCT-116 cells assessed as reduction in NTMT1 protein level by measuring maximal efficacy at 0.1 to 50 uM incubated for 24 hrs by Western blot analysis relative to control; format: cell-based; settings: dose 0.1-50 µM
[15] = target: T3, von Hippel-Lindau disease tumor suppressor/N-terminal Xaa-Pro-Lys N-methyltransferase 1 (Homo sapiens); test: PROTAC activity at VHL/NTMT1 in human HT-29 cells assessed as reduction in NTMT1 protein level by measuring maximal efficacy at 0.1 to 50 uM incubated for 24 hrs by Western blot analysis relative to control; format: cell-based; settings: dose 0.1-50 µM
[16] = target: T3, von Hippel-Lindau disease tumor suppressor/N-terminal Xaa-Pro-Lys N-methyltransferase 1 (Homo sapiens); test: PROTAC activity at VHL/NTMT1 in human HCT-116 cells assessed as reduction in NTMT1 protein level at 50 uM preincubated with MG132 for 2 hrs followed by compound addition and measured after 24 hrs by Western blot analysis; format: cell-based
[17] = target: T3, von Hippel-Lindau disease tumor suppressor/N-terminal Xaa-Pro-Lys N-methyltransferase 1 (Homo sapiens); test: PROTAC activity at VHL/NTMT1 in human HCT-116 cells assessed as reduction in NTMT1 protein level at 50 uM preincubated with MLN4924 for 2 hrs followed by compound addition and measured after 24 hrs by Western blot analysis; format: cell-based
[18] = target: T3, von Hippel-Lindau disease tumor suppressor/N-terminal Xaa-Pro-Lys N-methyltransferase 1 (Homo sapiens); test: PROTAC activity at VHL/NTMT1 in human HCT-116 cells co-expressing eGFP fusion protein assessed as reduction in NTMT1 protein level by measuring reduction in eGFP fluorescence at 100 uM incubated for 24 hrs by fluorescence microscopic analysis; format: cell-based
[19] = target: T3, von Hippel-Lindau disease tumor suppressor/N-terminal Xaa-Pro-Lys N-methyltransferase 1 (Homo sapiens); test: PROTAC activity at VHL/NTMT1 in human HCT-116 cells assessed as reduction in NTMT1 protein level by measuring maximal efficacy at 50 uM measured at 3 hrs by Western blot analysis relative to control; format: cell-based
[20] = target: T3, von Hippel-Lindau disease tumor suppressor/N-terminal Xaa-Pro-Lys N-methyltransferase 1 (Homo sapiens); test: PROTAC activity at VHL/NTMT1 in human HT-29 cells assessed as reduction in NTMT1 protein level at 50 uM measured upto 6 hrs by Western blot analysis; format: cell-based
[21] = target: T3, von Hippel-Lindau disease tumor suppressor/N-terminal Xaa-Pro-Lys N-methyltransferase 1 (Homo sapiens); test: PROTAC activity at VHL/NTMT1 in human HT-29 cells assessed as reduction in NTMT1 protein level by measuring maximal efficacy at 50 uM measured after 24 hrs by Western blot analysis relative to control; format: cell-based
[22] = target: T3, von Hippel-Lindau disease tumor suppressor/N-terminal Xaa-Pro-Lys N-methyltransferase 1 (Homo sapiens); test: PROTAC activity at VHL/NTMT1 in human HT-29 cells assessed as reduction in NTMT1 protein level at 50 uM preincubated with compound for 24 hrs followed by compound washout and measured after 20 hrs by Western blot analysis; format: cell-based
[23] = target: T3, von Hippel-Lindau disease tumor suppressor/N-terminal Xaa-Pro-Lys N-methyltransferase 1 (Homo sapiens); test: PROTAC activity at VHL/NTMT1 in human HCT-116 cells assessed as reduction in NTMT1 protein level at 50 uM preincubated with compound for 24 hrs followed by compound washout and measured after 20 hrs by Western blot analysis; format: cell-based
[24] = target: T4, von Hippel-Lindau disease tumor suppressor/N-terminal Xaa-Pro-Lys N-methyltransferase 2 (Homo sapiens) (UniProt P40337+Q5VVY1); test: PROTAC activity at VHL/NTMT2 in human HCT-116 cells assessed as reduction in NTMT2 protein level at 5 to 50 uM incubated for 24 hrs by Western blot analysis; format: cell-based; settings: dose 5-50 µM
T4 sequence (P40337 whole entry, looked up): as the sequence (P40337 whole entry, looked up, one chain of several) above
T4 sequence (Q5VVY1 whole entry, looked up): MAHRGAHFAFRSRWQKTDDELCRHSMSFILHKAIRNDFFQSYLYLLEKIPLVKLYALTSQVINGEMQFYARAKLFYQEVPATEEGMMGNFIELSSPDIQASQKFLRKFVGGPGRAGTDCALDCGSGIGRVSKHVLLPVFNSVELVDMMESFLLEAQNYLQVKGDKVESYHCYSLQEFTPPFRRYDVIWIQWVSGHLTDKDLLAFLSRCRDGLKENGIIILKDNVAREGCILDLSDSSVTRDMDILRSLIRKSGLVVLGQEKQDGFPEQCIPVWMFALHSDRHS

[25] = target: T4, von Hippel-Lindau disease tumor suppressor/N-terminal Xaa-Pro-Lys N-methyltransferase 2 (Homo sapiens); test: PROTAC activity at VHL/NTMT2 in human HT-29 cells assessed as reduction in NTMT2 protein level at 5 to 50 uM incubated for 24 hrs by Western blot analysis; format: cell-based; settings: dose 5-50 µM
HCT-116 [26] = test: Antiproliferative activity against human HCT-116 cells cultured in PG-S assessed as decrease in cell number measured after 3 days by AO/PI staining based cell counter analysis; format: functional; settings: time 3.0 day
HCT-116 [27] = test: Antiproliferative activity against human HCT-116 cells cultured in PG-S assessed as viable cells upto 64 uM measured after 3 days by AO/PI staining based cell counter analysis relative to control; format: functional; settings: time 3 day, up to 64 µM
HCT-116 [28] = test: Induction of cell cycle arrest in human HCT-116 cells assessed as accumulation of cells at G0/G1 phase incubated for 3 days by PI staining based flow cytometric analysis; format: functional; settings: time 3.0 day
HCT-116 [29] = test: Induction of cell cycle arrest in human HCT-116 cells assessed as G0/G1 phase cells at 64 uM incubated for 3 days by PI staining based flow cytometric analysis (reference value: 65%); format: functional; settings: time 3 day
HCT-116 [30] = test: Induction of cell cycle arrest in human HCT-116 cells assessed as decrease in S phase cells at 64 uM incubated for 3 days by PI staining based flow cytometric analysis; format: functional; settings: time 3.0 day
HCT-116 [31] = test: Downregulation of NTMT1 in human HCT-116 cells at 25 uM incubated for 24 hrs by LC-MS based proteomic analysis; format: functional, cell-based
HCT-116 [32] = test: Upregulation of CALR in human HCT-116 cells at 25 uM incubated for 24 hrs by LC-MS based proteomic analysis; format: functional, cell-based
HCT-116 [33] = test: Downregulation of NTMT1 in human HCT-116 cells at 25 uM incubated for 24 hrs by Western-blot analysis; format: functional, cell-based

Structure (SMILES)	IC50 [1] [nM]	Ratio IC50 [2]	Activity [3]	Activity (HCT-116 [5])	Activity (HT-29)	Activity (HCT-116 [6])	inhibition (INH) (HCT-116 [7]) [%]	Activity (HCT-116 [8])	Activity (HCT-116 [9]) [%]	Activity (HCT-116 [10]) [%]	fold change (FC) [11]	Activity [12]	Activity [13]	other results
Cc1ncsc1-c1ccc(CNC(=O)[C@@H]2C[C@H](O)CN2C(=O)[C@H](C(C)C)N2Cc3ccccc3C2=O)c(OCCNC(=O)c2ccccc2NC(=O)[C@H](CCCCN)NC(=O)[C@@H]2CCCN2C(=O)Cc2cccc3ccccc23)c1	2420	2	inactive	Non-Toxic	Non-Toxic	Active	22	inactive	32	78	1.1			Activity [4]: inactive
NCCCC[C@H](NC(=O)[C@@H]1CCCN1C(=O)Cc1cccc2ccccc12)C(=O)Nc1ccccc1C(=O)O	9180													
Cc1ncsc1-c1ccc(CNC(=O)[C@@H]2C[C@@H](O)CN2C(=O)[C@H](C(C)C)N2Cc3ccccc3C2=O)c(OCCOCCNC(=O)c2ccccc2NC(=O)[C@H](CCCCN)NC(=O)[C@@H]2CCCN2C(=O)Cc2cccc3ccccc23)c1	2000	2										Dose-Dependent Effect	Dose-Dependent Effect	
NCCCC[C@H](NC(=O)[C@@H]1CCCN1C(=O)Cc1cccc2ccccc12)C(=O)Nc1ccccc1C(N)=O	4380													
Cc1ncsc1-c1ccc(CNC(=O)[C@@H]2C[C@@H](O)CN2C(=O)[C@H](C(C)C)N2Cc3ccccc3C2=O)c(OCCNC(=O)c2ccccc2NC(=O)[C@H](CCCCN)NC(=O)[C@@H]2CCCN2C(=O)Cc2cccc3ccccc23)c1	1770	2	Active	Non-Toxic	Non-Toxic	Active	47	inactive	62	68	1.5	Dose-Dependent Effect	Dose-Dependent Effect	Emax [14]: > 90%; Emax [15]: > 90%; Activity [16]: inactive; Activity [17]: inactive; Activity [18]: Active; Emax [19]: > 60%; Activity [20]: inactive; Emax [21]: > 90%; Activity [22]: inactive; Activity [23]: inactive; Activity [24]: inactive; Activity [25]: inactive; Activity (HCT-116 [26]): Dose-Dependent Effect; Activity (HCT-116 [27]): >92%; Activity (HCT-116 [28]): Dose-Dependent Effect; Activity (HCT-116 [29]): 71%; Activity (HCT-116 [30]): Active; Activity (HCT-116 [31]): Active; Activity (HCT-116 [32]): Active; Activity (HCT-116 [33]): Active
Cc1ncsc1-c1ccc(CNC(=O)[C@@H]2C[C@@H](O)CN2C(=O)[C@H](C(C)C)N2Cc3ccccc3C2=O)c(OCCOCCOCCOCCNC(=O)c2ccccc2NC(=O)[C@H](CCCCN)NC(=O)[C@@H]2CCCN2C(=O)Cc2cccc3ccccc23)c1	2000	2										Dose-Dependent Effect	Dose-Dependent Effect	
